Columns and labels:
Assay type in all cases: functional
Medicago sativa [1] = assay: Herbicidal activity against Medicago sativa at 1.5 kg/hectare administered postemergence of first true leaf measured after 10 days; conditions: post-emergence, 240 h
Amaranthus retroflexus [2] = assay: Herbicidal activity against Amaranthus retroflexus at 1.5 kg/hectare administered postemergence of first true leaf measured after 10 days; conditions: post-emergence, 240 h
Amaranthus retroflexus [3] = assay: Herbicidal activity against Amaranthus retroflexus at 1.5 kg/hectare administered preemergence of first true leaf measured after 10 days; conditions: pre-emergence, 240 h
Brassica napus [4] = assay: Herbicidal activity against Brassica napus L. at 1.5 kg/hectare administered preemergence of first true leaf measured after 10 days; conditions: pre-emergence, 240 h
Digitaria sanguinalis [5] = assay: Herbicidal activity against Digitaria sanguinalis at 1.5 kg/hectare administered postemergence of first true leaf measured after 10 days; conditions: post-emergence, 240 h
Brassica napus [6] = assay: Herbicidal activity against Brassica napus at 1.5 kg/hectare administered postemergence of first true leaf measured after 10 days; conditions: post-emergence, 240 h
Medicago sativa [7] = assay: Herbicidal activity against Medicago sativa at 1.5 kg/hectare administered preemergence of first true leaf measured after 10 days; conditions: pre-emergence, 240 h
Digitaria sanguinalis [8] = assay: Herbicidal activity against Digitaria sanguinalis (L.) Scop. at 1.5 kg/hectare administered preemergence of first true leaf measured after 10 days; conditions: pre-emergence, 240 h
Mycosphaerella arachidis = assay: Fungicidal activity against Cercospora arachidicola assessed as inhibition of mycelium growth at 50 mg/L after 72 hrs
Alternaria solani = assay: Fungicidal activity against Alternaria solani assessed as inhibition of mycelium growth at 50 mg/L after 72 hrs
Cucumis sativus = assay: Growth regulatory activity in cucumber assessed as root growth at 10 mg/L incubated in dark for 5 days
Cladosporium cucumerinum = assay: Fungicidal activity against Cladosporium cucumerinum assessed as inhibition of mycelium growth at 50 mg/L after 72 hrs
Fusarium graminearum = assay: Fungicidal activity against Gibberella zeae assessed as inhibition of mycelium growth at 50 mg/L after 72 hrs
[9] = tested on: Botryosphaeria berengeriana; assay: Fungicidal activity against Physalospora pyricola assessed as inhibition of mycelium growth at 50 mg/L after 72 hrs

SMILES	inhibition at 1500 g/ha (Medicago sativa [1])	inhibition at 1500 g/ha (Amaranthus retroflexus [2])	inhibition at 1500 g/ha (Amaranthus retroflexus [3])	inhibition at 1500 g/ha (Brassica napus [4])	inhibition at 1500 g/ha (Digitaria sanguinalis [5])	inhibition at 1500 g/ha (Brassica napus [6])	inhibition at 1500 g/ha (Medicago sativa [7])	inhibition at 1500 g/ha (Digitaria sanguinalis [8])	inhibition at 50 µg/mL (Mycosphaerella arachidis)	inhibition at 50 µg/mL (Alternaria solani)	Activity (Cucumis sativus)	inhibition at 50 µg/mL (Cladosporium cucumerinum)	inhibition at 50 µg/mL (Fusarium graminearum)	inhibition at 50 µg/mL [9]
CCOCCOC(=O)/C(C#N)=C(\NCc1ccc(Cl)nc1)SC	55.3%	100%	32.4%	47.6%	54.1%	100%	3.6%	18.8%	–	–	–	–	–	–
CCOCCOC(=O)c1c(SC)nn(-c2ccc(Cl)cc2)c1N	0%	0%	0%	0%	0%	0%	0%	0%	26.5%	20%	66.6%	23.6%	37.8%	36%
CCOCCOC(=O)c1c(CC)nn(-c2ccc(Cl)cc2)c1N	0%	0%	0%	0%	0%	0%	0%	0%	41.2%	0%	111.3%	14.5%	53.3%	38.7%
CCOCCOC(=O)c1c(C(C)C)nn(-c2ccc(Cl)cc2)c1N	0%	0%	0%	40%	0%	26.4%	0%	0%	23.5%	0%	38.2%	23.6%	44.4%	33.3%
CCOCCOC(=O)c1c(CC)nn(-c2ccccc2)c1N	0%	0%	0%	0%	0%	61.5%	0%	0%	35.3%	20%	46.3%	18.2%	46.7%	1.3%
CCOCCOC(=O)c1c(C(C)C)nn(-c2ccccc2)c1N	0%	0%	0%	15%	0%	58.8%	0%	0%	20.6%	32%	46.3%	1.8%	46.7%	32%
CCOCCOC(=O)c1c(SC)nn(-c2ccc(C)cc2)c1N	0%	38%	0%	10%	0%	52.7%	0%	0%	35.3%	28%	66.6%	20%	46.7%	22.7%
CC1COC(Cn2cncn2)(c2ccc(Oc3ccc(Cl)cc3)cc2Cl)O1 (stereo not drawn) [DIFENOCONAZOLE]	–	–	–	–	–	–	–	–	100%	100%	–	100%	100%	100%
O=C(O)Cc1c[nH]c2ccccc12 [INDOLE-3-ACETIC ACID]	–	–	–	–	–	–	–	–	–	–	>150%	–	–	–

From ChEMBL document CHEMBL1136896, “Synthesis and biological evaluation of arylhydrazinocyanoacrylates and N-aryl pyrazolecarboxylates” (2009)
